Source: ChEMBL document CHEMBL5579859, “Discovery of novel indazole derivatives as second-generation TRK inhibitors” (Eur J Med Chem, 2024)
pIC50: −log10 of the molar value.

Key:
[1] = target: High affinity nerve growth factor receptor (Homo sapiens, UniProt P04629, G595R); assay: Inhibition of TRKA G595R mutant (unknown origin) using TK as substrate incubated for 30 mins in presence of ATP by HTRF assay
[2] = target: High affinity nerve growth factor receptor (Homo sapiens, UniProt P04629, F589L); assay: Inhibition of TRKA F589L mutant (unknown origin) using TK as substrate incubated for 30 mins in presence of ATP by HTRF assay
High affinity nerve growth factor receptor (Homo sapiens, UniProt P04629, F589L), sequence (P04629 33-796 F589L limits assumed): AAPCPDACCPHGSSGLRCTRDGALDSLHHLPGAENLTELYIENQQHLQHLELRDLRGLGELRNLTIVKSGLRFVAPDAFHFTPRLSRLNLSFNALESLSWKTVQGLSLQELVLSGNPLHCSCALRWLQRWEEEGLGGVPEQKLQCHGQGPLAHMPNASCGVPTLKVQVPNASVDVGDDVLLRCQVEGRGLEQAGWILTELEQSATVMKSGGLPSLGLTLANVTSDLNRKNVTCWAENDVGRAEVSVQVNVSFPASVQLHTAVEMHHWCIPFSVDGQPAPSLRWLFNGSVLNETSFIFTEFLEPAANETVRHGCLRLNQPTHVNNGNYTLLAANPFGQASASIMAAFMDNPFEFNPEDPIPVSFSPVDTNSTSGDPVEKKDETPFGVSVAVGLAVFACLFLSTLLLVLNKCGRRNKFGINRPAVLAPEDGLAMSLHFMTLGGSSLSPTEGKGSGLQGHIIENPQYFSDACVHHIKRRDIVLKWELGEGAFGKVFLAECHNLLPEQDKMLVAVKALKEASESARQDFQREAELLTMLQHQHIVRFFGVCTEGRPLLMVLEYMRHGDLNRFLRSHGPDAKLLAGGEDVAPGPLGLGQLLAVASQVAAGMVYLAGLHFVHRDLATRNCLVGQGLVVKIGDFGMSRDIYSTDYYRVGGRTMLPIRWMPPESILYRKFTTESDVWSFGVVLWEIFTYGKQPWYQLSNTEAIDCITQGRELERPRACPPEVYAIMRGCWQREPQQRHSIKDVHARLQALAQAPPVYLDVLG

[3] = target: NT-3 growth factor receptor (Homo sapiens, UniProt Q16288); assay: Inhibition of TRKC (unknown origin) using TK as substrate incubated for 40 mins in presence of ATP by HTRF assay
NT-3 growth factor receptor, sequence (Q16288 whole entry): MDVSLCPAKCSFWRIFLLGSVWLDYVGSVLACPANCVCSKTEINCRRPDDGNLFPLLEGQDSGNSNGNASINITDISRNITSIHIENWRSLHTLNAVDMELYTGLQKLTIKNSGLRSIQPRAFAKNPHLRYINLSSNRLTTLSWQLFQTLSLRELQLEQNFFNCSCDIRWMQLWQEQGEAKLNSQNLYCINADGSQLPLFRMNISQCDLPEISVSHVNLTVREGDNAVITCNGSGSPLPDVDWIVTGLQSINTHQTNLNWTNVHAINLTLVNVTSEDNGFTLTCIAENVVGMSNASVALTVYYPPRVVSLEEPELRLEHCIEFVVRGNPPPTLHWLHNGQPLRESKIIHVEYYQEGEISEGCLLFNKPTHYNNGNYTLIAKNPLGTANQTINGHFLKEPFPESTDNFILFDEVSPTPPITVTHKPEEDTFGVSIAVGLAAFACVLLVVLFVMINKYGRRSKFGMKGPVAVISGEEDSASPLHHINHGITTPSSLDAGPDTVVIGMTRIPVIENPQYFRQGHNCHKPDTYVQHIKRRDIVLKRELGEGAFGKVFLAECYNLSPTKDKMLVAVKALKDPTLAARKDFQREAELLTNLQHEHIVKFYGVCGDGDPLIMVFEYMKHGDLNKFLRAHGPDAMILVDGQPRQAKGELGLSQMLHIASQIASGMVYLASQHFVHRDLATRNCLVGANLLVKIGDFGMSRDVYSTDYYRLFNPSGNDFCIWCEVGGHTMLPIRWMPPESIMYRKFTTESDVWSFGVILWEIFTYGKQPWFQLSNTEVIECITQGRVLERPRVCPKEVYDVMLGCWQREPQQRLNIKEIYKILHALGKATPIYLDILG

[4] = target: High affinity nerve growth factor receptor (Homo sapiens, UniProt P04629, G667C); assay: Inhibition of TRKA G667C mutant (unknown origin) using TK as substrate incubated for 30 mins in presence of ATP by HTRF assay
High affinity nerve growth factor receptor (Homo sapiens, UniProt P04629, G667C), sequence (P04629 33-796 G667C limits assumed): as the sequence (P04629 33-796 F589L limits assumed) above, with L557F, G635C counted along it

[5] = target: High affinity nerve growth factor receptor (Homo sapiens, UniProt P04629); assay: Inhibition of TRKA (unknown origin) using TK as substrate incubated for 30 mins in presence of ATP by HTRF assay
High affinity nerve growth factor receptor (Homo sapiens, UniProt P04629), sequence (P04629 whole entry): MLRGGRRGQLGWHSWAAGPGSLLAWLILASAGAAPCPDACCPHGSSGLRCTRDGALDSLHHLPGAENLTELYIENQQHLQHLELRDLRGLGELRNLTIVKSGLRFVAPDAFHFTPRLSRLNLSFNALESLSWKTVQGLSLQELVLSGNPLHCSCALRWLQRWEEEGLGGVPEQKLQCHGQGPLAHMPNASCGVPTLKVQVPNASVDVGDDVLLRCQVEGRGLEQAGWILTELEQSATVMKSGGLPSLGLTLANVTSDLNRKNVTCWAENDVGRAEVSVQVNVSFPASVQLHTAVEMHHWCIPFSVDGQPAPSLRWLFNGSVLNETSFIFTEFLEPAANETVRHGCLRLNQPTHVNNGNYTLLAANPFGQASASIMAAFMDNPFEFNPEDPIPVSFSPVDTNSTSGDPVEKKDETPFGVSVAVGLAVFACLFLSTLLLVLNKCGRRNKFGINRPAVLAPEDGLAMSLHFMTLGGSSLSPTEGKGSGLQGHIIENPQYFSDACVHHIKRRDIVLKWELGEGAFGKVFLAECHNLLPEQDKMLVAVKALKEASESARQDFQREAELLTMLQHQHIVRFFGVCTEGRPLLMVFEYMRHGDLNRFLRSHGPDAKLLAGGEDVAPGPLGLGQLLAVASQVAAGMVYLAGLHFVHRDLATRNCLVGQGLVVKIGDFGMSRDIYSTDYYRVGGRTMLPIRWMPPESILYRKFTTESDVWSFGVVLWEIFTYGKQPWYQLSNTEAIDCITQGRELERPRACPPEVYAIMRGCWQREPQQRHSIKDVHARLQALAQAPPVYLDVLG

[6] = test system: KM12; assay: cells; conditions: Homo sapiens, KM12, 72 h
Description: Antiproliferative activity against human KM12 cells incubated for 72 hrs by CCK8 assay

[7] = test system: BaF3; assay: cells; conditions: Mus musculus, BaF3, 72 h
Description: Antiproliferative activity against mouse BaF3 cells expressing TRKA G595R mutant incubated for 72 hrs by CCK8 assay

[8] = test system: BaF3; assay: cells; conditions: Mus musculus, BaF3, 72 h; remark: listed apart in the source
[9] = test system: MCF7; assay: cells; conditions: Homo sapiens, MCF7, 72 h
Description: Antiproliferative activity against human MCF7 cells incubated for 72 hrs by CCK8 assay

High affinity nerve growth factor receptor (Homo sapiens, UniProt P04629, G595R), sequence (P04629 33-796 G595R limits assumed): as the sequence (P04629 33-796 F589L limits assumed) above, with L557F, G563R counted along it

| Structure (SMILES) | pIC50 [1] | further results |
| --- | --- | --- |
| CNC(=O)c1n[nH]c2ccc(NCc3cc(F)ccc3OC(F)F)cc12 | 6.42 | – |
| COc1ccc(F)cc1CNc1ccc2[nH]nc(C(N)=O)c2c1 | 6.17 | – |
| CNC(=O)c1n[nH]c2ccc(NCc3cc(F)ccc3OCCO)cc12 | 5.93 | – |
| N#Cc1n[nH]c2ccc(NCc3cc(F)ccc3OCC(F)F)cc12 | 7.52 | pIC50 [2]: 8.00; pIC50 [3]: 8.52; pIC50 [4]: 5.92; pIC50 [5]: 7.49 |
| CNC(=O)c1n[nH]c2ccc(NCc3cc(F)ccc3OCC(F)(F)F)cc12 | 6.85 | – |
| C[C@@H]1CCc2ncc(F)cc2[C@H]2CCCN2c2ccn3ncc(c3n2)C(=O)N1 [SELITRECTINIB] | – | pIC50 [6]: 8.17; pIC50 [7]: 7.92; pIC50 [8]: 6.95; pIC50 [9]: < 5.00 |
| CNC(=O)c1n[nH]c2ccc(NCc3cc(F)ccc3S(C)(=O)=O)cc12 | 5.95 | – |
| COc1ccc(F)cc1CNc1ccc2[nH]nc(-c3ccc(F)cc3)c2c1 | 5.87 | – |
| COc1ccc(F)cc1CNc1ccc2[nH]nc(-c3cccc(F)c3)c2c1 | 6.44 | – |
| COc1ccc(F)cc1CNc1ccc2[nH]nc(C#N)c2c1 | 6.77 | – |
| Fc1ccc(OCC(F)F)c(CNc2ccc3[nH]nc(-c4cnoc4)c3c2)c1 | 7.46 | pIC50 [2]: 8.10; pIC50 [4]: 7.31; pIC50 [5]: 8.30 |
| Fc1ccc(OCC(F)F)c(CNc2ccc3[nH]nc(-n4ccnn4)c3c2)c1 | 7.20 | pIC50 [2]: 8.70; pIC50 [3]: 8.40; pIC50 [6]: 8.01; pIC50 [7]: 6.88; pIC50 [8]: 6.87; pIC50 [4]: 7.21; pIC50 [5]: 8.52; pIC50 [9]: < 5.00 |
| COc1ccc(F)cc1CNc1ccc2[nH]nc(C(=O)NCC(F)F)c2c1 | 5.07 | – |
| COc1ccc(F)cc1CNc1ccc2[nH]nc(C(=O)NO)c2c1 | 5.32 | – |
| CNC(=O)c1n[nH]c2ccc(NCc3cc(F)ccc3OCC(F)F)cc12 | – | pIC50 [3]: 8.52 |
| CNC(=O)c1n[nH]c2ccc(NCc3cc(F)ccc3P(C)(C)=O)cc12 | 5.25 | – |
| COc1ccc(F)cc1CNc1ccc2[nH]nc(-c3cn[nH]c3)c2c1 | 6.96 | – |
| CNC(=O)c1n[nH]c2ccc(NCc3cc(F)ccc3OC)cc12 | 7.04 | – |
| CNC(=O)c1n[nH]c2ccc(NCc3cc(F)ccc3OCCF)cc12 | 6.70 | – |
| CNC(=O)c1n[nH]c2ccc(NCc3cc(F)ccc3OC(C)C)cc12 | 6.62 | – |

More lines, main results first:

| pIC50 [1] | Structure (SMILES) | further results |
| --- | --- | --- |
| 6.46 | COc1ccc(F)cc1CNc1ccc2[nH]nc(-n3cc(F)cn3)c2c1 | – |
| 5.24 | COc1ccc(F)cc1CNc1ccc2[nH]nc(-n3cc(C(F)(F)F)cn3)c2c1 | – |
| < 4.30 | COc1ccc(F)cc1CNc1ccc2[nH]nc(C(=O)N3CCC(O)C3)c2c1 (stereo unspecified) | – |
| 6.26 | COc1ccc(F)cc1CNc1ccc2[nH]nc(-n3cccn3)c2c1 | – |
| 6.54 | CNC(=O)c1n[nH]c2ccc(NCc3cc(F)ccc3OC3CCOCC3)cc12 | – |
| 6.68 | CNC(=O)c1n[nH]c2ccc(NCc3cc(F)ccc3OC3CCOC3)cc12 (stereo unspecified) | – |
| 6.24 | COc1ccc(F)cc1CNc1ccc2[nH]nc(-n3cnc(C(F)(F)F)c3)c2c1 | – |
| 4.48 | COc1ccc(F)cc1CNc1ccc2[nH]nc(C(=O)N3CCC(F)(F)C3)c2c1 | – |
| 7.72 | Fc1ccc(OCC(F)F)c(CNc2ccc3[nH]nc(-n4cncn4)c3c2)c1 | pIC50 [2]: 9.00; pIC50 [3]: 8.70; pIC50 [6]: 8.24; pIC50 [7]: 7.26; pIC50 [8]: 7.19; pIC50 [4]: 7.60; pIC50 [5]: 9.00; pIC50 [9]: < 5.00 |
| 5.44 | COc1ccc(F)cc1CNc1ccc2[nH]nc(C(=O)NC3CC3)c2c1 | – |
